Measurements published in patent US9126976B2 (Merck Sharp & Dohme Corp., priority 2011, dated 2015).

Columns and labels:
Assay type in all cases: biochemical
[1] = molecular target: endogenous CETP from serum (Homo sapiens (Human), UniProt P11597); experiment: RTA assay using endogenous CETP from serum (95% human serum); conditions: RTA in 95% human serum, Table 2
Method: (§1) In Vitro Radioactive Assays of CETP-Catalyzed CE and TG Transfer (RTA Assay)
(§2) Reagents and sources are: [3H] cholesteryl oleate (GE #TRK.886), [3H] Triolein (Perkin-Elmer NET-431), Butylated hydroxyl toluene (Aldrich, #D4740-4), DOPC (Sigma, # P6354), Sodium Bromide (Fisher scientific #S255-500), PEG 8000 (Fisher, #BP233-1), and human HDL (Intracel Corp #RP-036).
(§3) An in vitro assay for determining IC50's to identify compounds that inhibit CETP transfer activity is performed based on a modification of a published method (Morton and Zilversmit, (1981) A plasma inhibitor of triglyceride and cholesteryl ester transfer activities, J. Biol. Chem. 256(23), 11992-11995). The ability of inhibitors to alter CETP activity is performed using two different assays: one using recombinant CETP and one using an endogenous plasma source of CETP. Both assays measure the transfer of [3H] cholesteryl oleate or [3H] triolein from exogenous LDL to HDL.
(§4) Radiolabeled donor particles are generated by first combining 100 μl of 200 μM butylated hydroxyl toluene in CHCl3, 216 μL of 21.57 mM DOPC in EtOH, and either 500 μCi [3H]-triolein (Perkin Elmer #NET-431) or 500 μCi [3H]-cholesteryl oleate (GE #TRK886) in a glass tube. Reagents are mixed, dried under nitrogen, and then resuspended in 2 mL of 50 mM Tris, 27 μM EDTA at pH 7.4. After a brief vortex, the solution is sonicated until clear and mixed with 20 mL of fresh human serum. The mixture is incubated overnight at 37° C. The [3H] labeled LDL substrate is separated at 1.063 g/ml density by sequential ultracentrifugal flotation in NaBr according to the method by (Havel, Eder et al. 1955; Chapman, Goldstein et al. 1981). Once isolated the particles are dialyzed 3× in CETP buffer (50 mM Tris, pH 7.4, 100 mM NaCl, 1 mM EDTA). Human HDL is purchased from Intracel and used as the acceptor particles.
Transfer assays are performed in a 96-well v-bottom polypropylene plate. For the RTA using recombinant CETP (2% RTA), an assay cocktail is prepared with the final concentrations 128 μg/mL HDL, 20 nM rCETP, 2% human serum, and 1×CETP buffer. 1 μL of each test compound diluted in DMSO is added to 47 μL of assay cocktail per well and incubated at 37° C. for 1 hour. To initiate the transfer reaction, 2 μL radiolabeled LDL is added. After an additional 60 min of incubation at 37° C., the transfer action is terminated by precipitation of LDL with an equal volume of 20% W/V PEG 8000. The plates are centrifuged at 2000 rpm for 30 minutes at 4° C. A 40 μL aliquot of the HDL-containing supernatant is transferred to a Packard Optiplate™ with 200 μL of MicroScint™ 20. After mixing, plates are counted by liquid scintillation. […]

CETP [2] = molecular target: T1, CETP (Homo sapiens (Human), UniProt P11597); experiment: RTA assay, CETP-catalyzed CE and TG transfer, recombinant CETP (2% human serum)
Method: as §1, §2, §3, §4
Target sequence in this assay (P11597 18-493 limits assumed): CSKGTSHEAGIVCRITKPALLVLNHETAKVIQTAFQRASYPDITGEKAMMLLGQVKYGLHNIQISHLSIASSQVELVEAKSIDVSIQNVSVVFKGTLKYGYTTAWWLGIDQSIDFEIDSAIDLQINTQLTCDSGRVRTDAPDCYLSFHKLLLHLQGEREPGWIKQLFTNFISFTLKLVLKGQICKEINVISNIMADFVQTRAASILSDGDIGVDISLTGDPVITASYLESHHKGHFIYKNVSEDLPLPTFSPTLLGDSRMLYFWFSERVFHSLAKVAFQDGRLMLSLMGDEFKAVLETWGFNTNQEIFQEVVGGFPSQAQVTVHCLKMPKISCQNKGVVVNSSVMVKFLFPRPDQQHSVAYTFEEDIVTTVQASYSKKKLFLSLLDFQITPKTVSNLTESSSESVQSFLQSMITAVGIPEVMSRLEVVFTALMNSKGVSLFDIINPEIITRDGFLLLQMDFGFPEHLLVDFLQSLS
Transfer assays are performed in a 96-well v-bottom polypropylene plate. For the RTA using recombinant CETP (2% RTA), an assay cocktail is prepared with the final concentrations 128 μg/mL HDL, 20 nM rCETP, 2% human serum, and 1×CETP buffer. 1 μL of each test compound diluted in DMSO is added to 47 μL of assay cocktail per well and incubated at 37° C. for 1 hour. To initiate the transfer reaction, 2 μL radiolabeled LDL is added. After an additional 60 min of incubation at 37° C., the transfer action is terminated by precipitation of LDL with an equal volume of 20% W/V PEG 8000. The plates are centrifuged at 2000 rpm for 30 minutes at 4° C. A 40 μL aliquot of the HDL-containing supernatant is transferred to a Packard Optiplate™ with 200 μL of MicroScint™ 20. After mixing, plates are counted by liquid scintillation. Counts present in the supernatant for blanks (wells containing only HDL acceptor, CETP buffer and DMSO) are subtracted from those containing test compounds and used to correct for non-specific transfer.
Comparison of the counts of samples with inhibitors to an uninhibited (DMSO only) positive control yield a percent inhibition. A plot of percent inhibition vs. log of inhibitor concentration, fit to a Sigmoidal 4 parameter equation is used to calculate IC50.

CETP [3] = molecular target: T1, CETP; experiment: Scintillation Proximity Assay (SPA) for CETP activity
Method: Protocol: Scintillation Proximity Assay (SPA) for CETP Activity
First, low density lipoprotein (LDL) (Meridian) was biotinylated by incubating LDL with biotin for 1 hour on ice, after which it was dialyzed to remove free biotin. Then compounds at varying concentrations were incubated with 15 nM CETP (reagent production group, In Vitro Pharmacology, MRL Rahway) and 50 ug/ml of the biotinylated LDL in 50 mM HEPES, 150 mM NaCl, pH 7.4, for 1 hour at 37° C. The reaction was started by adding 3H-cholesterol ester high density lipoprotein (HDL) (American Radiochemicals Corp) at a concentration of ˜0.6 nM. The reaction proceeded for 2 hours at 37° C., after which time it was quenched by the addition of 12% acetic acid. PVT streptavadin-coated scintillation proximity beads, which had been brought to room temperature, were then added at a concentration of 4 mg/ml. The assay was then mixed and counted after one half hour in a Microbeta plate reader.
Target sequence in this assay (P11597 18-493): as the sequence (P11597 18-493 limits assumed) above

Sequence of endogenous CETP from serum (P11597 18-493 limits assumed): as above

SMILES: O[C@H](CN1c2ccccc2N(Cc2cccc(OC(F)(F)F)c2)CC1c1cccc(OC(F)F)c1)C(F)(F)F (stereo partly shown) [Example 61]
- IC50 [1]: 7.5 nM

SMILES: CC(C)(O)c1ccc(C2CN(Cc3cccc(OC(F)(F)F)c3)c3ccccc3N2C[C@@H](O)C(F)(F)F)cc1 (stereo partly shown) [Example 59]
- IC50 [1]: 24 nM

SMILES: CCOc1cccc(CN2C[C@@H](c3ccccc3)N(C[C@@H](O)C(F)(F)F)c3ccccc32)c1 [Example 8, (R)-3-((R)-4-(3-ethoxybenzyl)-2-phenyl-3,4-dihydroquinoxalin-1(2H)-yl)-1,1,1-trifluoropropan-2-ol]
- IC50 (CETP [2]): 301 nM

SMILES: O[C@H](CN1c2ccccc2N(Cc2cccc(C(F)(F)F)c2)C[C@H]1c1ccccc1)C(F)(F)F [Example 9, (R)-3-((R)-4-(3-trifluoromethylbenzyl)-2-phenyl-3,4-dihydroquinoxalin-1(2H)-yl)-1,1,1-trifluoropropan-2-ol]
- IC50 (CETP [2]): 47 nM

SMILES: O[C@H](CN1c2ccccc2N(Cc2cccc(OC(F)F)c2)CC1c1cccc(OC(F)F)c1)C(F)(F)F (stereo partly shown) [Example 60]
- IC50 [1]: 14 nM

SMILES: O[C@H](CN1c2ccccc2N(Cc2cccc(OC(F)(F)C(F)F)c2)C[C@H]1c1ccccc1)C(F)(F)F [Example 4, (R)-1,1,1-trifluoro-3-((R)-2-phenyl-4-(3-(1,1,2,2-tetrafluoroethoxy)benzyl)-3,4-dihydroquinoxalin-1(2H)-yl)-propan-2-ol]
- IC50 (CETP [2]): 112 nM

SMILES: O[C@H](CN1c2ccccc2N(Cc2cc(OC(F)(F)F)ccc2F)C[C@H]1c1ccccc1)C(F)(F)F [Example 5, (R)-1,1,1-trifluoro-3-((R)-4-(2-fluoro-5-(trifluoromethoxy)benzyl)-2-phenyl-3,4-dihydroquinoxalin-1(2H)-yl)-propan-2-ol]
- IC50 (CETP [2]): 11 nM

SMILES: O[C@H](CN1c2ccccc2N(Cc2cc(C(F)(F)F)cc(C(F)(F)F)c2)C[C@H]1c1ccccc1)C(F)(F)F [Example 3]
- IC50 (CETP [2]): 74 nM

SMILES: O[C@H](CN1c2ccccc2N(Cc2cccc(F)c2)C[C@H]1c1ccccc1)C(F)(F)F [Example 7, (R)-3-((R)-4-(3-fluorobenzyl)-2-phenyl-3,4-dihydroquinoxalin-1(2H)-yl)-1,1,1-trifluoropropan-2-ol]
- IC50 (CETP [2]): 110 nM

SMILES: O[C@@H](CN1c2ccccc2N(Cc2cccc(OC(F)(F)F)c2)C[C@H]1c1ccccc1)C(F)(F)F [Example 2, (S)-3-((R)-4-(3-trifluoromethoxy)-2-phenyl-3,4-dihydro-quinoxalin-1(2H)-yl)-1,1,1-trifluoro-propan-2-ol]
- IC50 (CETP [2]): 1350 nM

SMILES: O[C@H](CN1c2ccccc2N(C2C=Cc3ccccc32)CC1c1cccc(OC(F)(F)C(F)F)c1)C(F)(F)F (stereo partly drawn) [Example 56, (2R)-3(4-(1H-inden-1-yl))-2-(3-(1,1,2,2,- tetrafluoroethoxy)phenyl)-3,4-dihydroquinoxalin-1(2H)-yl-1,1,1-trifluoropropan-2-ol]
- IC50 (CETP [3]; Table 1, read-out: IC50): 11 nM

SMILES: O[C@H](CN1c2ccccc2N(Cc2cccc(OC(F)(F)F)c2)C[C@H]1c1ccccc1)C(F)(F)F [Example 1, (R)-3-((R)-4-(3-trifluoromethoxy)-2-phenyl-3,4-dihydroquinoxalin-1(2H)-yl)-1,1,1-trifluoropropan-2-ol]
- IC50 (CETP [2]): 19 nM

SMILES: CCc1cc(CN2C[C@@H](c3ccccc3)N(C[C@@H](O)C(F)(F)F)c3ccccc32)ccc1Cl [Example 6, (R)-3-((R)-4-(4-chloro-3-ethylbenzyl)-2-phenyl-3,4-dihydroquinoxalin-1(2H)-yl)-1,1,1-trifluoropropan-2-ol]
- IC50 (CETP [2]): 30 nM

SMILES: Cc1cc([C@@H]2CN(Cc3cccc(OC(F)(F)F)c3)c3ccccc3N2C[C@@H](O)C(F)(F)F)n(C)n1 [Example 28]
- IC50 (CETP [3]; read-out: SPA IC50): 390 nM

SMILES: O[C@H](CN1c2ccccc2N(Cc2cc(Cl)cc(Cl)c2)C[C@H]1c1cccc(C(F)(F)F)c1)C(F)(F)F [Example 32, (R)-3-((R)-4-(3,5-dichlorobenzyl)-2-(3-(trifluoromethyl)phenyl)-3,4-dihydroquinoxalin-1(2H)-yl)-1,1,1-trifluoro propan-2-ol]
- IC50 (CETP [3]; Table 1, read-out: IC50): 12 nM

SMILES: CN(C)c1ncc([C@@H]2CN(Cc3cccc(OC(F)(F)F)c3)c3ccccc3N2C[C@@H](O)C(F)(F)F)cn1 [Example 27]
- IC50 (CETP [3]; read-out: SPA IC50): 30 nM

SMILES: O[C@H](CN1c2ccccc2N(Cc2cccc(OC(F)(F)F)c2)C[C@H]1c1cc(C(F)(F)F)cc(C(F)(F)F)c1)C(F)(F)F [Example 25]
- IC50 (CETP [3]; read-out: SPA IC50): 770 nM

SMILES: O[C@H](CN1c2ccccc2N(Cc2cccc(OC(F)(F)F)c2)C[C@H]1c1cccc(OC(F)(F)C(F)F)c1)C(F)(F)F [Example 18]
- IC50 (CETP [3]; read-out: SPA IC50): 15 nM

SMILES: O[C@H](CN1c2ccccc2N(Cc2cc(F)cc(C(F)(F)F)c2)C[C@H]1c1ccccc1)C(F)(F)F [Example 29, (R)-3-((R)-4-(3-fluoro-5-(trifluoromethyl)benzyl)-2-phenyl-3,4-dihydroquinoxalin-1(2H)-yl)-1,1,1-trifluoropropan-2-ol]
- IC50 (CETP [3]; Table 1, read-out: IC50): 105 nM

SMILES: O[C@H](CN1c2ccccc2N(Cc2cccc(OC(F)(F)F)c2)C[C@H]1c1ccc(F)cc1)C(F)(F)F [Example 52]
- IC50 (CETP [3]; Table 1, read-out: IC50): 682 nM

SMILES: C[C@H](c1ccccc1)N1C[C@@H](c2cccc(C(F)(F)F)c2)N(C[C@@H](O)C(F)(F)F)c2ccccc21 [Example 15]
- IC50 (CETP [3]; read-out: SPA IC50): 14 nM

SMILES: O[C@H](CN1c2ccccc2N(Cc2cccc(OC(F)(F)F)c2)C[C@H]1c1cccc(OC(F)(F)F)c1)C(F)(F)F [Example 21]
- IC50 (CETP [3]; read-out: SPA IC50): 19 nM

SMILES: O[C@H](CN1c2ccccc2N(Cc2ncccc2N2CCOCC2)C[C@H]1c1cccc(C(F)(F)F)c1)C(F)(F)F [Example 63]
- IC50 (CETP [3]; Table 2, read-out: IC50 SPA): 1570 nM

SMILES: O[C@H](CN1c2ccccc2N(C2CCCc3ccccc32)CC1c1cccc(C(F)(F)F)c1)C(F)(F)F (stereo partly drawn) [Example 57, (2R)-1,1,1-trifluoro-3(4-(1,2,3,4-tetrahydronaphthalen-1-yl)-2-(3-trifluoromethyl)phenyl)-3,4-dihydroquinoxalin-1(2H)-yl-propan-2-ol]
- IC50 (CETP [3]; Table 1, read-out: IC50): 12 nM

SMILES: O[C@H](CN1c2ccccc2N(Cc2cc(F)cc(C(F)(F)F)c2)C[C@H]1c1cccc(C(F)(F)F)c1)C(F)(F)F [Example 41, (2R)-1,1,1-trifluoro-3-(4-(3-fluoro-5-(trifluoromethyl)benzyl)-2-(3-(trifluoromethyl)phenyl)-3,4-dihydroquinoxalin-1(2H)-yl)propan-2-ol]
- IC50 (CETP [3]; Table 1, read-out: IC50): 45.2 nM

SMILES: Cc1ccc(C(F)(F)F)cc1CN1C[C@@H](c2cccc(C(F)(F)F)c2)N(C[C@@H](O)C(F)(F)F)c2ccccc21 [Example 43, (2R)-1,1,1-trifluoro-3-(4-(2-methyl-5-(trifluoromethyl)benzyl)-2-(3-(trifluoromethyl)phenyl)-3,4-dihydroquinoxalin-1(2H)-yl)propan-2-ol]
- IC50 (CETP [3]; Table 1, read-out: IC50): 270 nM

SMILES: Cc1ccc([C@@H]2CN(Cc3cccc(OC(F)(F)F)c3)c3ccccc3N2C[C@@H](O)C(F)(F)F)cc1 [Example 53]
- IC50 (CETP [3]; Table 1, read-out: IC50): 56 nM

SMILES: O[C@H](CN1c2ccccc2N(Cc2cccc(OC(F)(F)F)c2)C[C@H]1c1ccccc1)C(F)(F)F [Example 17, (R)-3-((R)-4-(3-trifluoromethoxy)-2-phenyl-3,4-dihydroquinoxalin-1(2H)-yl)-1,1,1-trifluoro-propan-2-ol]
- IC50 (CETP [2]): 34 nM
